Reference: patent US12473310B2, “Vitamin D3 phosphate and pharmaceutically acceptable salts thereof, pharmaceutical compositions comprising the compound and methods for preparing the compound” (King's College London, priority 2020, dated 2025)
Counter-ions that a name gives are not always drawn.

Assays:
[1] = chemical stability on storage over 4 weeks; format: physicochemical
Protocol: The chemical stability of cholecalciferol phosphate acid/disodium salt was assessed in three different conditions over a 4-week period. Aliquots of 2 mg for each sample was stored at room temperature, 4° C., and −20° C. in a glass bottle covered with foil. A 20 mL sample of MeOH and MeOH:water (90:10) was added to cholecalciferol phosphate acid and cholecalciferol phosphate disodium salt, and the concentration and purity were assessed every week by the HPLC method described previously. The peak area was used to calculate sample concentration and the gradient of the data points being used to calculate the degradation rate.

physchem = format: physicochemical; conditions: 22 °C, organic solvent or mixture, thermodynamic from solid, HPLC
Protocol: An aliquot of 2.5 mg cholecalciferol and 2.5 mg cholecalciferol phosphate disodium salt prepared according to Example 1 were weighed into glass vials and 100 μL aliquots of the test solvents with different dielectric constants; water, MeOH:water (90:10), ethylene glycol, methanol (MeOH), propylene glycol (PG), ethanol (EtOH), poly(ethylene glycol) (PEG-400), and mineral oil were added until the sample was fully dissolved visually. A precise determination of the solubility was undertaken using high-performance liquid chromatography (HPLC). In the HPLC solubility studies an excess amount of cholecalciferol and cholecalciferol phosphate was added into 2 mL of each test solvent; water, MeOH:water (90:10), MeOH, and PG, EtOH and mineral oil. The solutions were left stirring overnight at room temperature, (RT), 22° C. The saturation of the solutions was confirmed by the visual appearance of crystals and the drug suspensions were filtered through 0.2 μm syringe filters, diluted, and the concentration of each sample was assessed using the HPLC method detailed below.
HPLC analysis was conducted using an HPLC system consisting of an auto-sample injector (Jasco AS-4050, Japan), a pump (Jasco PU-4180, Japan), and a photodiode array detector (Jasco MD-4017, Japan). The data was collected and analysed using the ChromNAV software. […]

C=C1CC[C@H](OP(=O)(O)O)C/C1=C/C=C1\CCC[C@@]2(C)C1CC[C@@H]2[C@H](C)CCCC(C)C (stereo partly drawn) [Cholecalciferol phosphate disodium salt, cholecalciferol phosphate disodium salt]
change of purity over 4 weeks ([1]; all storage conditions): less than 1%
degradation over 4 weeks ([1]; room temperature, 4° C. and −20° C.): did not degrade at any of the storage conditions
solubility (physchem): 3700 µg/mL
